Measured values reported in paper PMC10449621, “Engineering cellular communication between light-activated synthetic cells and bacteria” (Nature Chemical Biology, 2023).
“And” between values parts separate entries of the source, which are not always exact repeats. Equal entries are not always repeated.

Tests used:
Assay type in all cases: cell-based, E. coli XL10-Gold
[1] = test system: BjaRS107R (B0034|CTG) receiver cells; experiment: IV-HSL biosynthesis by BjaI in bulk CFPS reactions, quantified with receiver cells; conditions: 10 nM
Procedure: We first validated bjaI expression using bulk CFPS reactions containing (^35S)-methionine to visualize the newly synthesized protein. The full-length BjaI protein (25 kDa) was successfully translated, and its expression was not influenced by the presence of SAM and IV-CoA (Fig. 4b). To establish whether the BjaI was enzymatically active, CFPS reactions containing 80 µM IV-CoA and 300 µM SAM were incubated at 37 °C for 5 h, and then serially diluted and incubated with BjaRS107R (B0034|CTG) receiver cells. Indeed, IV-HSL was successfully synthesized within the CFPS reactions as the reaction mixture containing the complete set of components (bjaI DNA + SAM + IV-CoA) fully activated gfp expression in the receivers, while no fluorescence output was observed from CFPS reactions containing SAM and IV-CoA, but without bjaI DNA template (Fig. 4c,d). […] Similarly, on transferring this system inside GUVs, BjaI-producing synthetic cells also synthesized sufficient IV-HSL to fully activate gfp expression in BjaRS107R (B0033|ATG) receiver cells. […] The loss in specific activity between CFPS performed in bulk compared to inside GUVs was attributed to the loss of inner solution during emulsion phase transfer and when the GUVs ruptured, less efficient CFPS in GUVs compared to in bulk, and absence of gene expression in some GUVs.
In total, 3 µl CFPS reactions were prepared using PURExpress with 0.8 U µl^−1 murine RNase inhibitor, 5 ng µl^−1 linear bjaI DNA template and 300 µM SAM and 80 µM IV-CoA, as indicated. Reactions were incubated for 5 h at 37 °C using a thermal cycler and then serially diluted in Milli-Q H2O. In total, 1 µl of the samples was added to lidded Corning 96-well plates containing 200 µl BjaI receiver cells (pSB1A3 BjaRS107R (CTG) at OD600 = 0.05). Cells were grown at 37 °C, 800 r.p.m. in a thermomixer with a heated lid for 4 h. OD600 and fluorescence were measured using a Tecan infinite M1000 plate reader (Ex, 488 nm; Em, 510 nm; bandwidth, 5 nm; z position, 23,179 µm and gain, 101).

[2] = test system: BjaRWT (B0034|ACG) receiver cells; experiment: BjaR receiver cell AHSL dose-response (gfp reporter, plate reader)
Procedure: (§1) After four rounds of random mutagenesis, ON-selection and outgrowth, the OFF- and ON-states of 45 BjaR variants were screened by measuring their GFP fluorescence in the absence and presence of 1 nM IV-HSL. […] To understand the true impact of these mutations on receiver cell performance, the bjaRS107R (CTG) and bjaRWT (ACG) genes were cloned back into the reporter plasmid backbone without kanR.
(§2) The BjaR reporter plasmids were retransformed into E. coli XL10-Gold cells for each experiment. A single colony was used to inoculate 5 ml LB + Amp media and incubated at 37 °C, 225 r.p.m. overnight. Overnight cultures were diluted 1/250 or 1/500 in 5 ml M9 minimal media + Amp and incubated at 37 °C, 225 r.p.m. for 3 h and 45 min (until OD600 = ~0.075). Cultures were diluted down to OD600 = 0.05 with M9 minimal media + Amp, and 200 µl was added to wells of a 96-well plate containing 1 µl IV-HSL dissolved in DMSO or 1 µl BjaI CFPS reactions (IV-HSL concentrations obtained from serial dilution from 63.2 µM to 632 pM; final DMSO concentration = 0.5%). Cells were incubated at 37 °C, 800 r.p.m., in a thermomixer with a heated lid for 4 h. Fluorescence and OD600 were measured in a Tecan M1000 infinite plate reader (excitation, 488 nm; emission, 510 nm; bandwidth, 5 nm; gain, 101 and z position, 21,311 µm). The dose–response curves were fitted to the function indicated by Eq. (1), where a = maximal fluorescence output, b = basal fluorescence output, X = concentration of AHSL, GFP = fluorescence at the given condition, EC50 = AHSL at 50% maximal fluorescence output and h = hill coefficient. EC50 and h were derived using the nonlinear regression model based on Eq. (1), in MATLAB. A summary of the dose–response data is available in Supplementary Table 1.1 GFP=b+a−b/1+10^logEC50−X×h

[3] = test system: BjaRS107R (B0034|CTG) receiver cells; experiment: as above
Procedure: as §1, §2

[4] = Escherichia coli, IV-HSL-activated gfp expression

CC(C)CC(=O)N[C@H]1CCOC1=O [IV-HSL, N-isovaleryl-L-homoserine lactone]
GFP [1]: 45669 and 34133 and 41279
Mean normalised fluorescence [1]: 170055
Normalised fluorescence [1]: 160035 and 169389 and 180741
EC50 [2, 4]: 22.3 ± 2.59 nM
GFP ([2]; Log([ASHL]) -6.5): 41705 and 34148 and 40466
Mean normalised fluorescence ([2]; Log([ASHL]) -6.5): 152634
GFP ([2]; Log([ASHL]) -7): 36443 and 32999 and 38903
Mean normalised fluorescence ([2]; Log([ASHL]) -7): 132540
GFP ([2]; Log([ASHL]) -7.5): 26920 and 30479 and 35001
Mean normalised fluorescence ([2]; Log([ASHL]) -7.5): 111442
GFP ([2]; Log([ASHL]) -8): 23596 and 24216 and 12337
Mean normalised fluorescence ([2]; Log([ASHL]) -8): 70550.8
Mean normalised fluorescence ([2]; Log([ASHL]) -8.5): 28355.7
Mean normalised fluorescence ([2]; Log([ASHL]) -9): 6838.99
Mean normalised fluorescence ([2]; Log([ASHL]) -9.5): 1496.47
GFP ([2]; Log([ASHL]) -10): 268 and 258 and 219
Mean normalised fluorescence ([2]; Log([ASHL]) -10): 638.735
GFP ([2]; Log([ASHL]) -10.5): 198 and 199 and 217
Mean normalised fluorescence ([2]; Log([ASHL]) -10.5): 483.533
GFP ([2]; Log([ASHL]) -11): 195 and 198 and 217
Mean normalised fluorescence ([2]; Log([ASHL]) -11): 487.314
GFP ([2]; Log([ASHL]) -11.5): 199 and 225 and 193
Mean normalised fluorescence ([2]; Log([ASHL]) -11.5): 497.83
fold activation of gfp expression ([2]; with vs without IV-HSL): ~ 309 fold
EC50 [3, 4]: 0.44 ± 0.04 nM
GFP ([3]; Log([ASHL]) -6.5): 37925 and 45810 and 36660
Mean normalised fluorescence ([3]; Log([ASHL]) -6.5): 184153
Normalised fluorescence ([3]; Log([ASHL]) -6.5): 205027 and 170089 and 177344
GFP ([3]; Log([ASHL]) -7): 36122 and 43880 and 35340
Mean normalised fluorescence ([3]; Log([ASHL]) -7): 165547
Normalised fluorescence ([3]; Log([ASHL]) -7): 185321 and 153601 and 157719
GFP ([3]; Log([ASHL]) -7.5): 35735 and 43795 and 35365
Mean normalised fluorescence ([3]; Log([ASHL]) -7.5): 163310
Normalised fluorescence ([3]; Log([ASHL]) -7.5): 180638 and 151602 and 157690
GFP ([3]; Log([ASHL]) -8): 43912 and 35147 and 35505
Mean normalised fluorescence ([3]; Log([ASHL]) -8): 161376
Normalised fluorescence ([3]; Log([ASHL]) -8): 150185 and 151700 and 182243
GFP ([3]; Log([ASHL]) -8.5): 44967 and 35318 and 37269
Mean normalised fluorescence ([3]; Log([ASHL]) -8.5): 147580
Normalised fluorescence ([3]; Log([ASHL]) -8.5): 140866 and 144147 and 157727
GFP ([3]; Log([ASHL]) -9): 41968 and 33264 and 37415
Mean normalised fluorescence ([3]; Log([ASHL]) -9): 127915
Normalised fluorescence ([3]; Log([ASHL]) -9): 124650 and 118620 and 140474
GFP ([3]; Log([ASHL]) -9.5): 22707 and 17817 and 19857
Mean normalised fluorescence ([3]; Log([ASHL]) -9.5): 69560.7
Normalised fluorescence ([3]; Log([ASHL]) -9.5): 65949.9 and 69200.5 and 73531.6
GFP ([3]; Log([ASHL]) -10): 5295 and 3943 and 4882
Mean normalised fluorescence ([3]; Log([ASHL]) -10): 15714.4
Normalised fluorescence ([3]; Log([ASHL]) -10): 15242.3 and 14666.4 and 17234.6
GFP ([3]; Log([ASHL]) -10.5): 1534 and 1232 and 1622
Mean normalised fluorescence ([3]; Log([ASHL]) -10.5): 4749.74
Normalised fluorescence ([3]; Log([ASHL]) -10.5): 4305.92 and 4298.44 and 5644.87
GFP ([3]; Log([ASHL]) -11): 1122 and 884 and 1057
Mean normalised fluorescence ([3]; Log([ASHL]) -11): 3184.98
Normalised fluorescence ([3]; Log([ASHL]) -11): 3030.92 and 3019.01 and 3505.01
GFP ([3]; Log([ASHL]) -11.5): 784 and 731 and 617
Mean normalised fluorescence ([3]; Log([ASHL]) -11.5): 2156.19
Normalised fluorescence ([3]; Log([ASHL]) -11.5): 2102.93 and 2315.04 and 2050.6
fold activation of gfp expression ([3]; with vs without IV-HSL): ~ 88 fold
